Results reported in ChEMBL document CHEMBL4118205, “Design, synthesis and biological evaluation of artemisinin derivatives containing fluorine atoms as anticancer agents” (Bioorg Med Chem Lett, 2018).
pIC50: −log10 of the molar value. Calls of active or inactive are those of the source. The rule behind the calls is not given here.

What was measured:
[1] = tested on: U-87 MG; assay: Cytotoxicity against human U87 cells assessed as reduction in cell viability after 72 hrs by MTT assay; format: functional, cell-based, U-87MG ATCC
[2] = tested on: SH-SY5Y; assay: Cytotoxicity against human SH-SY5Y cells assessed as reduction in cell viability after 72 hrs by MTT assay; format: functional, cell-based
[3] = tested on: MCF7; assay: Cytotoxicity against human MCF7 cells assessed as reduction in cell viability after 72 hrs by MTT assay; format: functional, cell-based; conditions: MCF7, 72 h
[4] = tested on: MDA-MB-231; assay: Cytotoxicity against human MDA-MB-231 cells assessed as reduction in cell viability after 72 hrs by MTT assay; format: functional, cell-based; conditions: MDA-MB-231, 72 h
[5] = tested on: A549; assay: Cytotoxicity against human A549 cells assessed as reduction in cell viability after 72 hrs by MTT assay; format: functional, cell-based; conditions: A549, 72 h
[6] = tested on: L02; assay: Cytotoxicity against human L02 cells assessed as reduction in cell viability after 72 hrs by MTT assay; format: functional, cell-based; conditions: L02, 72 h
[7] = tested on: MCF7; assay: Induction of apoptosis in human MCF7 cells assessed as early apoptotic cells at 1 uM after 48 hrs by Annexin-V FITC/propidium iodide staining based flow cytometry (reference value: 0.50%); format: functional
[8] = tested on: MCF7; assay: Induction of apoptosis in human MCF7 cells assessed as viable cells at 1 uM after 48 hrs by Annexin-V FITC/propidium iodide staining based flow cytometry (reference value: 88.59%); format: functional; conditions: MCF7, 48 h, read-out: Activity
[9] = tested on: MCF7; assay: Induction of apoptosis in human MCF7 cells assessed as late apoptotic cells at 5 uM after 48 hrs by Annexin-V FITC/propidium iodide staining based flow cytometry (reference value: 6.22%); format: functional
[10] = tested on: MCF7; assay: Induction of apoptosis in human MCF7 cells assessed as early apoptotic cells at 2.5 uM after 48 hrs by Annexin-V FITC/propidium iodide staining based flow cytometry (reference value: 0.50%); format: functional
[11] = tested on: MCF7; assay: Induction of apoptosis in human MCF7 cells assessed as late apoptotic cells at 2.5 uM after 48 hrs by Annexin-V FITC/propidium iodide staining based flow cytometry (reference value: 6.22%); format: functional
[12] = tested on: MCF7; assay: Induction of apoptosis in human MCF7 cells assessed as necrotic cells at 2.5 uM after 48 hrs by Annexin-V FITC/propidium iodide staining based flow cytometry (reference value: 4.69%); format: functional
[13] = tested on: MCF7; assay: Induction of apoptosis in human MCF7 cells assessed as viable cells at 2.5 uM after 48 hrs by Annexin-V FITC/propidium iodide staining based flow cytometry (reference value: 88.59%); format: functional; conditions: MCF7, 48 h, read-out: Activity
[14] = tested on: MCF7; assay: Induction of apoptosis in human MCF7 cells assessed as early apoptotic cells at 5 uM after 48 hrs by Annexin-V FITC/propidium iodide staining based flow cytometry (reference value: 0.50%); format: functional
[15] = tested on: MCF7; assay: Induction of apoptosis in human MCF7 cells assessed as viable cells at 5 uM after 48 hrs by Annexin-V FITC/propidium iodide staining based flow cytometry (reference value: 88.59%); format: functional; conditions: MCF7, 48 h, read-out: Activity
[16] = tested on: MCF7; assay: Induction of apoptosis in human MCF7 cells assessed as early apoptotic cells at 10 uM after 48 hrs by Annexin-V FITC/propidium iodide staining based flow cytometry (reference value: 0.50%); format: functional
[17] = tested on: MCF7; assay: Induction of apoptosis in human MCF7 cells assessed as late apoptotic cells at 10 uM after 48 hrs by Annexin-V FITC/propidium iodide staining based flow cytometry (reference value: 6.22%); format: functional
[18] = tested on: MCF7; assay: Induction of apoptosis in human MCF7 cells assessed as necrotic cells at 10 uM after 48 hrs by Annexin-V FITC/propidium iodide staining based flow cytometry (reference value: 4.69%); format: functional
[19] = tested on: MCF7; assay: Induction of apoptosis in human MCF7 cells assessed as early apoptotic cells at 20 uM after 48 hrs by Annexin-V FITC/propidium iodide staining based flow cytometry (reference value: 0.50%); format: functional
[20] = tested on: MCF7; assay: Induction of apoptosis in human MCF7 cells assessed as necrotic cells at 20 uM after 48 hrs by Annexin-V FITC/propidium iodide staining based flow cytometry (reference value: 4.69%); format: functional
[21] = tested on: MCF7; assay: Induction of apoptosis in human MCF7 cells after 48 hrs by Annexin-V FITC/propidium iodide staining based flow cytometry; format: functional, cell-based
[22] = tested on: MCF7; assay: Cell cycle arrest in human MCF7 cells assessed as accumulation at S phase at 0.5 uM after 48 hrs by propidium iodide staining based flow cytometry (reference value: 41.55%); format: functional
[23] = tested on: MCF7; assay: Induction of apoptosis in human MCF7 cells assessed as morphological alteration up to 20 uM after 48 hrs by Hoechst 33258 staining based fluorescence microscopic method; format: functional, cell-based
[24] = tested on: MCF7; assay: Induction of apoptosis in human MCF7 cells assessed as cell shrinkage up to 20 uM after 48 hrs by Hoechst 33258 staining based fluorescence microscopic method; format: functional
[25] = tested on: MCF7; assay: Induction of apoptosis in human MCF7 cells assessed as granular apoptotic body formation up to 20 uM after 48 hrs by Hoechst 33258 staining based fluorescence microscopic method; format: functional, cell-based
[26] = tested on: MCF7; assay: Cell cycle arrest in human MCF7 cells assessed as accumulation at G1 phase at 0.5 uM after 48 hrs by propidium iodide staining based flow cytometry (reference value: 45.21%); format: functional
[27] = tested on: MCF7; assay: Cell cycle arrest in human MCF7 cells assessed as accumulation at G1 phase at 1 uM after 48 hrs by propidium iodide staining based flow cytometry (reference value: 45.21%); format: functional
[28] = tested on: MCF7; assay: Cell cycle arrest in human MCF7 cells assessed as accumulation at G2 phase at 1 uM after 48 hrs by propidium iodide staining based flow cytometry (reference value: 13.24%); format: functional
[29] = tested on: MCF7; assay: Cell cycle arrest in human MCF7 cells assessed as accumulation at G1 phase at 2.5 uM after 48 hrs by propidium iodide staining based flow cytometry (reference value: 45.21%); format: functional
[30] = tested on: MCF7; assay: Cell cycle arrest in human MCF7 cells assessed as accumulation at S phase at 2.5 uM after 48 hrs by propidium iodide staining based flow cytometry (reference value: 41.55%); format: functional
[31] = tested on: MCF7; assay: Cell cycle arrest in human MCF7 cells assessed as accumulation at G2 phase at 2.5 uM after 48 hrs by propidium iodide staining based flow cytometry (reference value: 13.24%); format: functional
[32] = tested on: MCF7; assay: Cell cycle arrest in human MCF7 cells assessed as accumulation at G1 phase at 5 uM after 48 hrs by propidium iodide staining based flow cytometry (reference value: 45.21%); format: functional
[33] = tested on: MCF7; assay: Cell cycle arrest in human MCF7 cells assessed as accumulation at S phase at 5 uM after 48 hrs by propidium iodide staining based flow cytometry (reference value: 41.55%); format: functional
[34] = tested on: MCF7; assay: Cell cycle arrest in human MCF7 cells assessed as accumulation at G2 phase at 5 uM after 48 hrs by propidium iodide staining based flow cytometry (reference value: 13.24%); format: functional
[35] = tested on: MCF7; assay: Cell cycle arrest in human MCF7 cells assessed as accumulation at G1 phase at 10 uM after 48 hrs by propidium iodide staining based flow cytometry (reference value: 45.21%); format: functional
[36] = tested on: MCF7; assay: Cell cycle arrest in human MCF7 cells assessed as accumulation at G2 phase at 10 uM after 48 hrs by propidium iodide staining based flow cytometry (reference value: 13.24%); format: functional
[37] = tested on: MCF7; assay: Cell cycle arrest in human MCF7 cells assessed as accumulation at G1 phase after 48 hrs by propidium iodide staining based flow cytometry; format: functional

C[C@H]1[C@H](N2CCN(C(=O)Nc3ccc(OC(F)(F)F)cc3)CC2)O[C@@H]2O[C@@]3(C)CC[C@H]4[C@H](C)CC[C@@H]1[C@@]24OO3
pIC50 [1]: 4.71
pIC50 [2]: 5.44
pIC50 [3]: 5.68
pIC50 [4]: 5.08
pIC50 [5]: 4.70
pIC50 [6]: 5.17
Activity [7]: 0.48%
viability at 1 µM [8]: 84.4%
Activity [9]: 33.62%
Activity [10]: 0.66%
Activity [11]: 19.17%
Activity [12]: 20.85%
viability at 2.5 µM [13]: 59.5%
Activity [14]: 1.38%
viability at 5 µM [15]: 43.5%
Activity [16]: 0.8%
Activity [17]: 53.36%
Activity [18]: 17.18%
Activity [19]: 4.78%
Activity [20]: 10.18%
Activity [21]: Dose-dependent effect
Activity [22]: 39.72%
Activity [23]: Active
Activity [24]: Active
Activity [25]: Active
Activity [26]: 47.95%
Activity [27]: 56.57%
Activity [28]: 10.09%
Activity [29]: 64.46%
Activity [30]: 26.36%
Activity [31]: 9.18%
Activity [32]: 76.68%
Activity [33]: 15.49%
Activity [34]: 7.83%
Activity [35]: 83.5%
Activity [36]: 7.3%
Activity [37]: Dose-dependent effect
